Laboratory results as given in ChEMBL document CHEMBL2040782 (Eur J Med Chem, 2012).

Legend:
Rattus norvegicus = assay: Wake promoting activity in EEG/EMG Sprague-Dawley rat model assessed as slow wave sleep and rapid eye movement sleep time at 100 mg/kg, ip measured up to 3 hrs (reference value: 65 +/- 9 mins); assay type: functional; settings: route intraperitoneal
CYP3A4 = CYP3A4 (Homo sapiens, UniProt P08684); assay: Inhibition of CYP3A4 at 10 uM; assay type: ADME
CYP2D6 = CYP2D6 (Homo sapiens, UniProt P10635); assay: Inhibition of CYP2D6 at 10 uM; assay type: ADME
CYP3A5 = CYP3A5 (Homo sapiens, UniProt P20815); assay: Inhibition of CYP3A5 at 10 uM; assay type: ADME
[1] = biological target: Transporter (Rattus norvegicus) (UniProt Q63380); settings: 10 uM
Description: Inhibition of rat NET at 10 uM

[2] = biological target: Sodium-dependent serotonin transporter (Rattus norvegicus) (UniProt P31652); assay: Inhibition of rat SERT at 10 uM
Transporter = Transporter (Rattus norvegicus, UniProt Q63380); assay: Inhibition of rat NET-mediated norepinephrine reuptake
[3] = biological target: Sodium-dependent serotonin transporter (Rattus norvegicus, UniProt P31652); assay: Inhibition of rat SERT-mediated serotonin reuptake
Cytochrome P450 2C19 = Cytochrome P450 2C19 (Homo sapiens, UniProt P33261); assay: Inhibition of CYP2C19; assay type: ADME
Cytochrome P450 3A4 = Cytochrome P450 3A4 (Homo sapiens, UniProt P08684); assay: Inhibition of CYP3A4; assay type: ADME
Cytochrome P450 1A2 = biological target: T1, Cytochrome P450 1A2 (Homo sapiens, UniProt P05177); assay: (§1) Inhibition of CYP1A2 ( at 100 uM); assay type: ADME; settings: 100 µM
T1 sequence (P05177 whole entry): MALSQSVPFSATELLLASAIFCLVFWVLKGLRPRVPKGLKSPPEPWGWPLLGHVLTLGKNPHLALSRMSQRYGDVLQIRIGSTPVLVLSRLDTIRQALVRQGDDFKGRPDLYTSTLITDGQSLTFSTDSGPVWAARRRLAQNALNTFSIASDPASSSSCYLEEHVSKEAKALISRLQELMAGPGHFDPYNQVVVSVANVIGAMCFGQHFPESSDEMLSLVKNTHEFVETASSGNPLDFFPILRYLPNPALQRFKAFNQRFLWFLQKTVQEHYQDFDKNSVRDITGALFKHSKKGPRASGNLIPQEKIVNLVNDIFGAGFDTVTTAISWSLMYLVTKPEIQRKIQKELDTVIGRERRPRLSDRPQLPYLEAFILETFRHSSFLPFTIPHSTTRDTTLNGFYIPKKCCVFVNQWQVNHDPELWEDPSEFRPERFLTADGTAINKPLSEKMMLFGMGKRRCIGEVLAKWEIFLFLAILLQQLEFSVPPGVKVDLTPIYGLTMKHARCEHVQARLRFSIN

Cytochrome P450 1A1 = biological target: T2, Cytochrome P450 1A1 (Homo sapiens, UniProt P04798); assay: (§2) Inhibition of CYP1A1 ( at 100 uM); assay type: ADME; settings: 100 µM
T2 sequence (P04798 whole entry): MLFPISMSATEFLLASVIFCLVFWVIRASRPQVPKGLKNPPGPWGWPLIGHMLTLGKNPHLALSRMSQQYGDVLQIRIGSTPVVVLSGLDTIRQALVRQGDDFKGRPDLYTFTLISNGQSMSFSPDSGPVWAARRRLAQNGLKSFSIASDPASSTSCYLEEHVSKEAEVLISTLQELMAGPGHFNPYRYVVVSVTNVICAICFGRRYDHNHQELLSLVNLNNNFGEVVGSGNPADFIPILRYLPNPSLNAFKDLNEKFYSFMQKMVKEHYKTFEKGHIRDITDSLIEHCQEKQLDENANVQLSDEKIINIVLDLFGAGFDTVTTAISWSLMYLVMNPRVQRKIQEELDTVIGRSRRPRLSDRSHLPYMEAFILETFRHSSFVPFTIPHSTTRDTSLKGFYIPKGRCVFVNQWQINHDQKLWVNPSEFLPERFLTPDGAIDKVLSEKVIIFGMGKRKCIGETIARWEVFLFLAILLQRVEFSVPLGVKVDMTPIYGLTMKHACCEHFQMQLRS

[4] = biological target: T3, Sodium-dependent dopamine transporter (Rattus norvegicus, UniProt P23977); assay: Inhibition of rat DAT-mediated dopamine reuptake
Cytochrome P450 2D6 = Cytochrome P450 2D6 (Homo sapiens, UniProt P10635); assay: Inhibition of CYP2D6; assay type: ADME
[5] = biological target: T3, Sodium-dependent dopamine transporter; assay: Inhibition of rat DAT
Cytochrome P450 3A5 = Cytochrome P450 3A5 (Homo sapiens, UniProt P20815); assay: Inhibition of CYP3A5; assay type: ADME
Cytochrome P450 2C9 = Cytochrome P450 2C9 (Homo sapiens, UniProt P11712); assay: Inhibition of CYP2C9; assay type: ADME
CYP1A2 = biological target: T4, CYP1A2 (Homo sapiens, UniProt P05177); assay: as §1; assay type: ADME
T4 sequence (P05177 whole entry): T1 sequence (P05177 whole entry)

CYP1A1 = biological target: T5, CYP1A1 (Homo sapiens, UniProt P04798); assay: as §2; assay type: ADME
T5 sequence (P04798 whole entry): T2 sequence (P04798 whole entry)

T3 sequence (P23977 whole entry): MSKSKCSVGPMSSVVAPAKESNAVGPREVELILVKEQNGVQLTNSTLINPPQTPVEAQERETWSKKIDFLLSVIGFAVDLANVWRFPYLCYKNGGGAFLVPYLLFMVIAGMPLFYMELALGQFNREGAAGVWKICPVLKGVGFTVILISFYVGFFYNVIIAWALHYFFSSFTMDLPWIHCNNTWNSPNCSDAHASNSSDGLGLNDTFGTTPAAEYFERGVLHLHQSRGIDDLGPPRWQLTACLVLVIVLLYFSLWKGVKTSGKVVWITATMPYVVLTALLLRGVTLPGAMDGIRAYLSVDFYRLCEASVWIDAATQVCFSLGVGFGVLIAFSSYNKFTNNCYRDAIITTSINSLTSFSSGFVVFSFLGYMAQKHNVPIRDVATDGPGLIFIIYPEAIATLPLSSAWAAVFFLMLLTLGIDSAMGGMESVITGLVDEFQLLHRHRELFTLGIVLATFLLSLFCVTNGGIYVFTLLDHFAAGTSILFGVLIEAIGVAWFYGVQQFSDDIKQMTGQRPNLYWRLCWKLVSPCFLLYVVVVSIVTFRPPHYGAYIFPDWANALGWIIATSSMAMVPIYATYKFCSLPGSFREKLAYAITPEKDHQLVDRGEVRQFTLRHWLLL
Sequence of Transporter (Q63380 whole entry): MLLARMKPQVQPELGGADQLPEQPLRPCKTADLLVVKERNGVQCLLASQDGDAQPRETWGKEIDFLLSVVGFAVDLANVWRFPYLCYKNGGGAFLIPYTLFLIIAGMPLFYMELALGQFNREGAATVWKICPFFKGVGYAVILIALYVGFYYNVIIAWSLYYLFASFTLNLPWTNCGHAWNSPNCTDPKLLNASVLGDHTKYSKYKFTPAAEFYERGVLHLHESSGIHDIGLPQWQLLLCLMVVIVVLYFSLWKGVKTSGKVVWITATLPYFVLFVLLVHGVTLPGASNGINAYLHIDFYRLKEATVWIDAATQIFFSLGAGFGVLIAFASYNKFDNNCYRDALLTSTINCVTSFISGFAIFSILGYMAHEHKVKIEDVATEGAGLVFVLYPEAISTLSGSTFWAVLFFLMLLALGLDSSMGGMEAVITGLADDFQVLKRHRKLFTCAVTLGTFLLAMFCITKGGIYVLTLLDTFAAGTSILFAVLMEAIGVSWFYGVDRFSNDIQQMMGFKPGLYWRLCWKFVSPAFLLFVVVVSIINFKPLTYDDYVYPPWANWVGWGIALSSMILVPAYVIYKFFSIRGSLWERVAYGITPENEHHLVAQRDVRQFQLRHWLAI
Sequence of Transporter (Rattus norvegicus) (Q63380 as listed by the source): as the sequence (Q63380 whole entry) above
Sequence of Sodium-dependent serotonin transporter (P31652 whole entry): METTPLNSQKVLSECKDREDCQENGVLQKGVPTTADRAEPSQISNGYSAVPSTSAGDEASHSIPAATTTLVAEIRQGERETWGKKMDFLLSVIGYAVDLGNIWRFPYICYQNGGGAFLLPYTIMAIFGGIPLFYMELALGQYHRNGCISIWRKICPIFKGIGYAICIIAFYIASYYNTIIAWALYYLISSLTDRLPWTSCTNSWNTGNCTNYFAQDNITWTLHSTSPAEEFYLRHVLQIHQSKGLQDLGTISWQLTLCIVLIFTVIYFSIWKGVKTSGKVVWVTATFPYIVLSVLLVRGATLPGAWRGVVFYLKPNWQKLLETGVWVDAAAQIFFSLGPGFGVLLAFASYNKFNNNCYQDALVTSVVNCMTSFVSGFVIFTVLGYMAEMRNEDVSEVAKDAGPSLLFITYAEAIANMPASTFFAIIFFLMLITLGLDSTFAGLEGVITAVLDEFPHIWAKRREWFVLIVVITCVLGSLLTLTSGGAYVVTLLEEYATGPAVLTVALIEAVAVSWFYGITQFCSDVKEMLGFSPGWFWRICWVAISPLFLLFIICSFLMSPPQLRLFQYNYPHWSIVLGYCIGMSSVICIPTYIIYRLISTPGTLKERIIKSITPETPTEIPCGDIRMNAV
Sequence of Sodium-dependent serotonin transporter (Rattus norvegicus) (P31652 whole entry): as above
Sequence of Cytochrome P450 2D6 (P10635 whole entry): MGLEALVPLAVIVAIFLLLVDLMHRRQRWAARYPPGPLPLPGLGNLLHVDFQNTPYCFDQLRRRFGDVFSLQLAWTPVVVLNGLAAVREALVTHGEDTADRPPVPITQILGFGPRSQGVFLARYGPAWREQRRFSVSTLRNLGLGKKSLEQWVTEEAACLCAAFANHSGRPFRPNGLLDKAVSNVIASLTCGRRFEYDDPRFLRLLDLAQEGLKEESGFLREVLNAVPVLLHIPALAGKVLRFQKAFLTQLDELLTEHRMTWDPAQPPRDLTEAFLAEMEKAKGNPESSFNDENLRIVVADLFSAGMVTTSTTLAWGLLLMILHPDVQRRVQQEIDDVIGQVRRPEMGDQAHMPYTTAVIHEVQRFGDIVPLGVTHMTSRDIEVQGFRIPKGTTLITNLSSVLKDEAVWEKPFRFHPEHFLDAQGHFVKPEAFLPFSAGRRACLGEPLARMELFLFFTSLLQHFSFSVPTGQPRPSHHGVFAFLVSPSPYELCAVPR
Sequence of Cytochrome P450 3A5 (P20815 whole entry): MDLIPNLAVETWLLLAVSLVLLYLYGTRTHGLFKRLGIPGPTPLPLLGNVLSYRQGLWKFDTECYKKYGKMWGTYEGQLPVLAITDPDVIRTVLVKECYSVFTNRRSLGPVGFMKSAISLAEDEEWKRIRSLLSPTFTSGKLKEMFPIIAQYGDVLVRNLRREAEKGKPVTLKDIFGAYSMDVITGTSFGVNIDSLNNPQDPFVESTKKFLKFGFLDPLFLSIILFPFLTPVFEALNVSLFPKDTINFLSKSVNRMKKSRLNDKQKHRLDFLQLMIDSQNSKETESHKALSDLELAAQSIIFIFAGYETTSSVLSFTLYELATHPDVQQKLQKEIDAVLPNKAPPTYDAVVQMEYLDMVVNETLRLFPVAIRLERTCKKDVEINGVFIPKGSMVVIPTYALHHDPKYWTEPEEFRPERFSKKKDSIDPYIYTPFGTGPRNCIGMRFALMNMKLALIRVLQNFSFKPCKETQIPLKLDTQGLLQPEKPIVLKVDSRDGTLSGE
Sequence of Cytochrome P450 3A4 (P08684 whole entry): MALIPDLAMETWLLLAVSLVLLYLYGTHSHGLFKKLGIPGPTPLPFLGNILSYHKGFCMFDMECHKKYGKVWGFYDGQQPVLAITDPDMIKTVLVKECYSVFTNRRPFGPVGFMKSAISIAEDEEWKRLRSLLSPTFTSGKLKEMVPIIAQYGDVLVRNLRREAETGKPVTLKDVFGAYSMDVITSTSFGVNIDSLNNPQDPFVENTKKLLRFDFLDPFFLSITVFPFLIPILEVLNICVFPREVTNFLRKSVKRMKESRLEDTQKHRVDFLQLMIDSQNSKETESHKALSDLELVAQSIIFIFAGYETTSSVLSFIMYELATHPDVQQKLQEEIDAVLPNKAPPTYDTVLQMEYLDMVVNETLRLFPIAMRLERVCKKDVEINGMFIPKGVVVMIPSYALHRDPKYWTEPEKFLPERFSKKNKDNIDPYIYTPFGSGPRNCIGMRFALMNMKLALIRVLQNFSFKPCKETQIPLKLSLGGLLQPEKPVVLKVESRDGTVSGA
Sequence of Cytochrome P450 2C19 (P33261 whole entry): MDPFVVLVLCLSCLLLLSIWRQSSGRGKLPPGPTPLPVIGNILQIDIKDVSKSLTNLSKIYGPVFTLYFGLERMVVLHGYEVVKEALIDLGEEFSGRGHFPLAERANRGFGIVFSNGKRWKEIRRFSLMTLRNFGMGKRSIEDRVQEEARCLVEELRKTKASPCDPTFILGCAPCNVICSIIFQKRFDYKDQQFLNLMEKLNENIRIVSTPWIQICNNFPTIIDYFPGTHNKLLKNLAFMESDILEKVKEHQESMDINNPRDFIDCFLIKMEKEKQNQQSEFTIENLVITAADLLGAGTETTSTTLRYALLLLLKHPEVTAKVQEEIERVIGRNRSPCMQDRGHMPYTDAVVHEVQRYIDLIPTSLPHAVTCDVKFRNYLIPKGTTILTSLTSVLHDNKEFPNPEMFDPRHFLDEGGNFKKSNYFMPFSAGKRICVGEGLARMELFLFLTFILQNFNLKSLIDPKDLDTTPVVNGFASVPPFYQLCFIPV
Sequence of CYP2D6 (P10635 whole entry): as the sequence (P10635 whole entry) above
Sequence of CYP3A5 (P20815 whole entry): as the sequence (P20815 whole entry) above
Sequence of CYP3A4 (P08684 whole entry): as the sequence (P08684 whole entry) above

## NC(=O)C[S+]([O-])Cc1ccccc1Oc1ccc2ccccc2c1 (racemic)
Rattus norvegicus
  Time: 131 min

## NC(=O)C[S+]([O-])C(c1ccccc1)c1ccccc1 (stereo unspecified) [MODAFINIL]
CYP3A4
  inhibition at 10 µM: < 10%
CYP2D6
  inhibition at 10 µM: < 10%
Rattus norvegicus
  Time: 117 min
CYP3A5
  inhibition at 10 µM: < 10%

## NC(=O)C[S+]([O-])Cc1ccccc1Oc1ccc(Cl)c(Cl)c1 (racemic)
Rattus norvegicus; 100 mg/kg
  Time: 180 min

## NC(=O)C[S+]([O-])Cc1ccccc1Oc1ccc(Cl)c(Cl)c1 (single isomer, unassigned; (+)) [listing 1 of 2 here]
[1]
  inhibition: 39%
[2]
  inhibition: 24%

## NC(=O)C[S+]([O-])Cc1ccccc1Oc1ccc(Cl)c(F)c1 (racemic)
Rattus norvegicus
  Time: 176 min

## NC(=O)C[S+]([O-])Cc1ccc(Oc2ccc(Cl)c(Cl)c2)cc1 (stereo unspecified)
Rattus norvegicus
  Time: 88 min

## NC(=O)C[S+]([O-])Cc1ccccc1Oc1ccc(Cl)cc1 (racemic)
Rattus norvegicus
  Time: 165 min

## NC(=O)C[S+]([O-])Cc1ccccc1Oc1cc(Cl)cc(Cl)c1 (racemic)
Rattus norvegicus
  Time: 117 min

## NC(=O)C[S+]([O-])Cc1ccccc1Oc1ccc(Cl)c(Cl)c1 (single isomer, unassigned; (+)) [listing 2 of 2 here]
Transporter
  IC50: 3.1 µM
[3]
  IC50: 33 µM
Rattus norvegicus; 100 mg/kg
  Time: 167 min
Cytochrome P450 2C19
  IC50: 20 µM
Cytochrome P450 3A4
  IC50: 32 µM
Cytochrome P450 1A2
  inhibition (INH): 18%
Cytochrome P450 1A1
  inhibition (INH): 18%
[4]
  IC50: 1.1 µM
Cytochrome P450 2D6
  IC50: 89 µM
[5]
  IC50: 0.9 µM
Cytochrome P450 3A5
  IC50: 32 µM

## NC(=O)C[S+]([O-])Cc1ccccc1Oc1ccc(Cl)cc1Cl (racemic)
Rattus norvegicus
  Time: 74 min

## NC(=O)C[S+]([O-])Cc1ccccc1Oc1ccc(Cl)c(Cl)c1 (single isomer, unassigned; (-)) [listing 1 of 2 here]
[1]
  inhibition: 48%
[2]
  inhibition: 30%

## NC(=O)C[S+]([O-])Cc1ccccc1Oc1ccc(Cl)c(Cl)c1 (single isomer, unassigned; (-)) [listing 2 of 2 here]
Transporter
  IC50: 1.3 µM
[3]
  IC50: 31 µM
Cytochrome P450 2C9
  IC50: 216 µM
Rattus norvegicus; 100 mg/kg
  Time: 168 min
Cytochrome P450 2C19
  IC50: 30 µM
Cytochrome P450 3A4
  IC50: 40 µM
CYP1A2
  inhibition at 100 µM: 10%
CYP1A1
  inhibition at 100 µM: 10%
[4]
  IC50: 1.1 µM
Cytochrome P450 2D6
  IC50: 106 µM
[5]
  IC50: 0.2 µM
Cytochrome P450 3A5
  IC50: 40 µM

## NC(=O)C[S+]([O-])Cc1ccccc1Oc1ccc(F)cc1 (racemic)
Rattus norvegicus
  Time: 123 min

## NC(=O)C[S+]([O-])Cc1ccccc1Oc1cccc(Cl)c1Cl (racemic)
Rattus norvegicus
  Time: 120 min

## NC(=O)C[S+]([O-])Cc1ccccc1Oc1ccc(F)c(Cl)c1 (racemic)
Rattus norvegicus
  Time: 160 min
